Experimental findings from ChEMBL document CHEMBL3880386, “Combination comprising the MEK inhibitor N-{3-[3-cyclopropyl-5-(2-fluoro-4-iodo- phenylamino)-6,8-dimethyl-2,4,7-trioxo-3,4,6,7-tetrahydro-2H-pyrido[4,3-d]pyrimidin-1-yl]phenyl}acetamide and the Akt inhibitor N-{(1S)-2-amino-1-[(3-fluorophenyl)methyl]ethyl}-5-chloro-4-(4-chloro-1- …” (2014) are described below.

The nature of test [1]: Growth inhibition of human T84 cells at 1:10 molar ratio of compound in presence of N-{(1S)-2-amino-1-[(3-fluorophenyl)methyl]ethyl}-5-chloro-4-(4-chloro-1-methyl-1H-pyrazol-5-yl)-2-thiophenecar- boxamide incubated for 72 hrs by Cell-titer-Glo reagent based assay. It is filed as functional. Conditions: T84, 72 h.
The nature of test [2]: Growth inhibition of human SW837 cells at 1:10 molar ratio of compound in presence of N-{(1S)-2-amino-1-[(3-fluorophenyl)methyl]ethyl}-5-chloro-4-(4-chloro-1-methyl-1H-pyrazol-5-yl)-2-thiophenecar- boxamide incubated for 72 hrs by Cell-titer-Glo reagent based assay. Particulars: SW837, 72 h. It is filed as functional.
Test [3] can be described thus: Growth inhibition of human MV522 cells at 1:10 molar ratio of compound in presence of N-{(1S)-2-amino-1-[(3-fluorophenyl)methyl]ethyl}-5-chloro-4-(4-chloro-1-methyl-1H-pyrazol-5-yl)-2-thiophenecar- boxamide incubated for 72 hrs by Cell-titer-Glo reagent based assay. The format is functional. Particulars: MV522, 72 h.
The nature of test [4]: Growth inhibition of human NCI-H1155 cells at 1:10 molar ratio of compound in presence of N-{(1S)-2-amino-1-[(3-fluorophenyl)methyl]ethyl}-5-chloro-4-(4-chloro-1-methyl-1H-pyrazol-5-yl)-2-thiophenecar- boxamide incubated for 72 hrs by Cell-titer-Glo reagent based assay. The format is functional. Conditions: NCI-H1155, 72 h.
Test [5] can be described thus: Growth inhibition of human HOP62 cells at 1:10 molar ratio of compound in presence of N-{(1S)-2-amino-1-[(3-fluorophenyl)methyl]ethyl}-5-chloro-4-(4-chloro-1-methyl-1H-pyrazol-5-yl)-2-thiophenecar- boxamide incubated for 72 hrs by Cell-titer-Glo reagent based assay. The format is functional. Conditions: HOP-62, 72 h.
The nature of test [6]: Growth inhibition of human SW900 cells at 1:10 molar ratio of compound in presence of N-{(1S)-2-amino-1-[(3-fluorophenyl)methyl]ethyl}-5-chloro-4-(4-chloro-1-methyl-1H-pyrazol-5-yl)-2-thiophenecar- boxamide incubated for 72 hrs by Cell-titer-Glo reagent based assay. It is filed as functional. Conditions: SW900, 72 h.
Test [7] is described as follows: Growth inhibition of human MDA-MB-175-VII cells assessed combination index at 1:10 molar ratio of compound in presence of N-{(1S)-2-amino-1-[(3-fluorophenyl)methyl]ethyl}-5-chloro-4-(4-chloro-1-methyl-1H-pyrazol-5-yl)-2-thiophenecar- boxamide incubated for 72 hrs by Cell-titer-Glo reagent based assay. It is filed as functional.
Test [8] is described as follows: Growth inhibition of human LS1034 cells assessed combination index at 1:10 molar ratio of compound in presence of N-{(1S)-2-amino-1-[(3-fluorophenyl)methyl]ethyl}-5-chloro-4-(4-chloro-1-methyl-1H-pyrazol-5-yl)-2-thiophenecar- boxamide incubated for 72 hrs by Cell-titer-Glo reagent based assay. The format is functional, LS-1034.
Test [9] in a line: Growth inhibition of human NCI-H1355 cells assessed combination index at 1:10 molar ratio of compound in presence of N-{(1S)-2-amino-1-[(3-fluorophenyl)methyl]ethyl}-5-chloro-4-(4-chloro-1-methyl-1H-pyrazol-5-yl)-2-thiophenecar- boxamide incubated for 72 hrs by Cell-titer-Glo reagent based assay. The format is functional.
The nature of test [10]: Growth inhibition of human NCI-H1792 cells assessed combination index at 1:10 molar ratio of compound in presence of N-{(1S)-2-amino-1-[(3-fluorophenyl)methyl]ethyl}-5-chloro-4-(4-chloro-1-methyl-1H-pyrazol-5-yl)-2-thiophenecar- boxamide incubated for 72 hrs by Cell-titer-Glo reagent based assay. It is filed as functional.
Test [11] can be described thus: Growth inhibition of human Calu6 cells assessed combination index at 1:10 molar ratio of compound in presence of N-{(1S)-2-amino-1-[(3-fluorophenyl)methyl]ethyl}-5-chloro-4-(4-chloro-1-methyl-1H-pyrazol-5-yl)-2-thiophenecar- boxamide incubated for 72 hrs by Cell-titer-Glo reagent based assay. It is filed as functional, Calu-6.
The nature of test [12]: Growth inhibition of human EFM19 cells at 1:10 molar ratio of compound in presence of N-{3-[3-cyclopropyl-5-(2-fluoro-4-iodo-phenylamino)-6,8-dimethyl- 2,4,7-trioxo-3,4,6,7-tetrahydro-2H-pyrido[4,3-d]pyrimidin-1-yl]phenyl}acetamide incubated for 72 hrs by Cell-titer-Glo reagent based assay. Particulars: EFM-19, 72 h. The format is functional.
The nature of test [13]: Growth inhibition of human KM12 cells at 1:10 molar ratio of compound in presence of N-{3-[3-cyclopropyl-5-(2-fluoro-4-iodo-phenylamino)-6,8-dimethyl- 2,4,7-trioxo-3,4,6,7-tetrahydro-2H-pyrido[4,3-d]pyrimidin-1-yl]phenyl}acetamide incubated for 72 hrs by Cell-titer-Glo reagent based assay. The format is functional. Particulars: KM12, 72 h.
A short description of test [14]: Growth inhibition of human COLO205 cells at 1:10 molar ratio of compound in presence of N-{3-[3-cyclopropyl-5-(2-fluoro-4-iodo-phenylamino)-6,8-dimethyl- 2,4,7-trioxo-3,4,6,7-tetrahydro-2H-pyrido[4,3-d]pyrimidin-1-yl]phenyl}acetamide incubated for 72 hrs by Cell-titer-Glo reagent based assay. The format is functional. Conditions: COLO 205, 72 h.
The nature of test [15]: Growth inhibition of human HT-29 cells at 1:10 molar ratio of compound in presence of N-{3-[3-cyclopropyl-5-(2-fluoro-4-iodo-phenylamino)-6,8-dimethyl- 2,4,7-trioxo-3,4,6,7-tetrahydro-2H-pyrido[4,3-d]pyrimidin-1-yl]phenyl}acetamide incubated for 72 hrs by Cell-titer-Glo reagent based assay. It is filed as functional. Conditions: HT-29, 72 h.
Test [16] in a line: Growth inhibition of human NCI-H1792 cells at 1:10 molar ratio of compound in presence of N-{3-[3-cyclopropyl-5-(2-fluoro-4-iodo-phenylamino)-6,8-dimethyl- 2,4,7-trioxo-3,4,6,7-tetrahydro-2H-pyrido[4,3-d]pyrimidin-1-yl]phenyl}acetamide incubated for 72 hrs by Cell-titer-Glo reagent based assay. The format is functional. Conditions: NCI-H1792, 72 h.
Test [17] in a line: Growth inhibition of human NCI-H1155 cells at 1:10 molar ratio of compound in presence of N-{3-[3-cyclopropyl-5-(2-fluoro-4-iodo-phenylamino)-6,8-dimethyl- 2,4,7-trioxo-3,4,6,7-tetrahydro-2H-pyrido[4,3-d]pyrimidin-1-yl]phenyl}acetamide incubated for 72 hrs by Cell-titer-Glo reagent based assay. The format is functional. Particulars: NCI-H1155, 72 h.
Test [18] can be described thus: Growth inhibition of human LS1034 cells assessed combination index at 1:10 molar ratio of compound in presence of N-{3-[3-cyclopropyl-5-(2-fluoro-4-iodo-phenylamino)-6,8-dimethyl- 2,4,7-trioxo-3,4,6,7-tetrahydro-2H-pyrido[4,3-d]pyrimidin-1-yl]phenyl}acetamide incubated for 72 hrs by Cell-titer-Glo reagent based assay. It is filed as functional, LS-1034.
Test [19] can be described thus: Growth inhibition of human HT-29 cells assessed combination index at 1:10 molar ratio of compound in presence of N-{3-[3-cyclopropyl-5-(2-fluoro-4-iodo-phenylamino)-6,8-dimethyl- 2,4,7-trioxo-3,4,6,7-tetrahydro-2H-pyrido[4,3-d]pyrimidin-1-yl]phenyl}acetamide incubated for 72 hrs by Cell-titer-Glo reagent based assay. It is filed as functional.
A short description of test [20]: Growth inhibition of human Calu6 cells assessed combination index at 1:10 molar ratio of compound in presence of N-{3-[3-cyclopropyl-5-(2-fluoro-4-iodo-phenylamino)-6,8-dimethyl- 2,4,7-trioxo-3,4,6,7-tetrahydro-2H-pyrido[4,3-d]pyrimidin-1-yl]phenyl}acetamide incubated for 72 hrs by Cell-titer-Glo reagent based assay. It is filed as functional, Calu-6.

Turning to `CC(=O)Nc1cccc(-n2c(=O)n(C3CC3)c(=O)c3c(Nc4ccc(I)cc4F)n(C)c(=O)c(C)c32)c1` [TRAMETINIB], the 50% inhibitory concentration (IC50) in test [1] was found to be 30 nM; in test [2] it was 25 nM; in test [3], 1 nM; in test [4] it was 10 nM; in test [5] it was 50 nM; in [6], 72 nM. Moreover, the CI amounted to 0.39 in test [7]; 0.84 in test [8]; 0.57 in [9]; 0.73 in test [10]; 0.79 in test [11].

With `Cn1ncc(Cl)c1-c1cc(C(=O)N[C@H](CN)Cc2cccc(F)c2)sc1Cl` [AFURESERTIB], the IC50 in [12] turned out to be 300 nM; in test [13], 104 nM; in test [14] it was 9 nM; in test [15], 15 nM; in [16], 374 nM; in test [17], 101 nM. Besides, the figures for the CI in test [18], in test [19] and in [20] were 0.84, 0.95 and 0.79, respectively.

The term IC50 denotes the concentration needed to halve the response being measured.
